Test results: ChEMBL document CHEMBL4619828, “Discovery of Potent and Orally Bioavailable Small Molecule Antagonists of Toll-like Receptors 7/8/9 (TLR7/8/9)” (ACS Med Chem Lett, 2020)
pEC50, pIC50: −log10 of the molar value.

Legend:
Toll-like receptor 9 [1] = biological target: T1, Toll-like receptor 9 (Homo sapiens, UniProt Q9NR96); experiment: Antagonist activity at human TLR9 overexpressed in HEK-Blue cells assessed as inhibition of ODN2006-induced NFkappaB and AP-1 activation preincubated for 30 mins followed by ODN2006 stimulation measured after 22 hrs by quanti-blue SEAP assay; type: cell-based
T1 sequence (Q9NR96 whole entry): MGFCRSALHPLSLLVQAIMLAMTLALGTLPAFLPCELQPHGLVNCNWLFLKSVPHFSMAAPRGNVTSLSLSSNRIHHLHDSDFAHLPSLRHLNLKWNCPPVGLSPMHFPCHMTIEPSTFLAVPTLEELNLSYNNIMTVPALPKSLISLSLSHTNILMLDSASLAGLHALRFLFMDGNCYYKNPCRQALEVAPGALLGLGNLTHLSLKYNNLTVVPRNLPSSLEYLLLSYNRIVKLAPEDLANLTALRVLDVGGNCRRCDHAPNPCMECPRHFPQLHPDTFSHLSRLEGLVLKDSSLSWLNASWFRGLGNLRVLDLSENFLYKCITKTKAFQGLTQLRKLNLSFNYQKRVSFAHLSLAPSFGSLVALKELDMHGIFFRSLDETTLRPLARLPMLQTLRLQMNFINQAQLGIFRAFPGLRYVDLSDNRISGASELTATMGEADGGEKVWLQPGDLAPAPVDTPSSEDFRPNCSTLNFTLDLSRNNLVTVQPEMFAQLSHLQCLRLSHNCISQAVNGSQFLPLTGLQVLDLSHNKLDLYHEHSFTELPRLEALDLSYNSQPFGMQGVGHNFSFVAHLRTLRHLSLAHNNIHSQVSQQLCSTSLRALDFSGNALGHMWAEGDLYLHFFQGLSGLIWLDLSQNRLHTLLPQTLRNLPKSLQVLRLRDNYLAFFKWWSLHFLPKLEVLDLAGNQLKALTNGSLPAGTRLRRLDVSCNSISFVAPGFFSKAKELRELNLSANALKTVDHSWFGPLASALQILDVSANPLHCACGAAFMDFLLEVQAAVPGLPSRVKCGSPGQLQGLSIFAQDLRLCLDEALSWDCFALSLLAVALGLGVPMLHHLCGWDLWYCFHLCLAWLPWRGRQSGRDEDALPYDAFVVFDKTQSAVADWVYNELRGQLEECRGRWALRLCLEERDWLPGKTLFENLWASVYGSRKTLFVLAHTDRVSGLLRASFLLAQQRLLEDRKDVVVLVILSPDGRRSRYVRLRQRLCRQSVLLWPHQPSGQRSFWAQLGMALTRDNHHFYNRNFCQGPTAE

Toll-like receptor 9 [2] = biological target: T2, Toll-like receptor 9 (Mus musculus, UniProt Q9EQU3)
T2 sequence (Q9EQU3 whole entry): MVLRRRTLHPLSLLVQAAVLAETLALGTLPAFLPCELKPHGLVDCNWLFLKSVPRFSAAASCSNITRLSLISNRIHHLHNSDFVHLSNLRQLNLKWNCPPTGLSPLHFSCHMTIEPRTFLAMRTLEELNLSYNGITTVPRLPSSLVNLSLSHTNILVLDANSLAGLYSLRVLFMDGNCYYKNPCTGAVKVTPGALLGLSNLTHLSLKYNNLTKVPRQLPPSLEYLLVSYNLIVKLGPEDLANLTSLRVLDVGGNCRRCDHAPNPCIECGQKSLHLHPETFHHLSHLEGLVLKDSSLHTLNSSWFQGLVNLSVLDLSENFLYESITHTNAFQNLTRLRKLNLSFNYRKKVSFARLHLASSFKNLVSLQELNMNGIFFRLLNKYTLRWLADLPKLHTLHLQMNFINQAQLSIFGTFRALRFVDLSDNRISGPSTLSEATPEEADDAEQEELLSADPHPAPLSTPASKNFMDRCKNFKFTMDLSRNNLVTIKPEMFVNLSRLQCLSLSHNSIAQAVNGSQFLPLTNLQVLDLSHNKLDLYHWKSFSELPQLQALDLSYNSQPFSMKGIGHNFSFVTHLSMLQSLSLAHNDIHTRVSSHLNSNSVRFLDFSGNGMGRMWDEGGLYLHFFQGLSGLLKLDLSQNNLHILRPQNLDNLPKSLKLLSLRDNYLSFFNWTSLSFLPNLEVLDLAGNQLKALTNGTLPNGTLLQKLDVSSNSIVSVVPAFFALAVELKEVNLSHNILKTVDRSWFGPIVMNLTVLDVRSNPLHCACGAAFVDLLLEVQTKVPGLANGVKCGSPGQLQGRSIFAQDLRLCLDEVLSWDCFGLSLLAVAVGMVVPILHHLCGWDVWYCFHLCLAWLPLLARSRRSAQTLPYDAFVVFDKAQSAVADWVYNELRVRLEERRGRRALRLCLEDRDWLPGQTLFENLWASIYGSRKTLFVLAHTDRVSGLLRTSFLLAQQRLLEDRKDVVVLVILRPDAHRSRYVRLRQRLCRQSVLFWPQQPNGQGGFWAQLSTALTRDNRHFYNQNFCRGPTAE
Description: In vivo antagonist activity at TLR9 in po dosed C57BL/6 mouse assessed as reduction of CpG-ODN-1585-induced IL-6 production pretreated for 30 mins followed by CpG-ODN-1585-stimulation and measured after 120 mins by ELISA

Toll-like receptor 9 [3] = biological target: T1, Toll-like receptor 9; experiment: Antagonist activity at TLR9 (unknown origin) in PBMC cells assessed as reduction of IL-6 production; type: cell-based
Toll-like receptor 9 [4] = biological target: T1, Toll-like receptor 9; experiment: Antagonist activity at TLR9 in human whole blood cells assessed as inhibition of ODN-2216 induced IL-6 production by ELISA; type: cell-based
Toll-like receptor 9 [5] = biological target: T1, Toll-like receptor 9; experiment: Antagonist activity at TLR9 in human pDC assessed as inhibition of ODN2216-induced IFN-alpha production incubated for 24 hrs measured by ELISA
[6] = Volume of distribution in steady state in mouse at 3 mg/kg, iv; type: ADME, organism-based; settings: in vivo, read-out: Vdss

## CNCCN1CCC(c2ccc3[nH]c(-c4ccc(OC)c(OC)c4)c(C(C)C)c3c2)CC1
Toll-like receptor 9 [1]
  pIC50: 6.15
Toll-like receptor 9 [2]
  pEC50: 7.60
Toll-like receptor 9 [3]
  pIC50: 6.29
Toll-like receptor 9 [4]
  pIC50: 6.49
Toll-like receptor 9 [5]
  pIC50: 6.68
[6]
  Vd: 20 L/kg
